Structures can show the parent of a compound that is named as a salt.
## CN/C(=N/c1cc(C)c(C(=O)OCc2ccccc2C)cc1C)OC
  melting point: 90 to 92 °C

## CCN(C)/C=N/c1ccc(C(=O)OCc2cccc(C(F)(F)F)c2)c(C)c1C (as salt: hydrochloride)
  melting point: 172 to 176 °C

— patent US20220220068A1 (published 2022)
